Measured values reported in article PMC7557599, “Cyclic Peptide-Gadolinium Nanoparticles for Enhanced Intracellular Delivery” (Pharmaceutics, 2020).

System: CCRF-CEM cells
Experiment: Time-dependent antiproliferative activity assay (MTS)
Format: cell-based, human
Conditions: drug 5 µM, [(WR)5C]-GdNPs 50 µM, 72 h incubation, MTS 490 nm, triplicate (n = 3)
Method: Antiproliferative activities of several anticancer drugs, including epirubicin, cisplatin, gemcitabine, etoposide, carboplatin and camptothecin, were evaluated in the presence and absence of [(WR)5C]-GdNPs in CCRF-CEM cells. Different time periods, including 24, 48 and 72 h, were selected. The CellTiter 96 aqueous one solution cell proliferation assay kit (Promega, Madison, WI, USA) was used for the assay. The CCRF-CEM cells (5 × 10^4) were seeded in 100 µL of the media. The cells then placed in each well of the 96-well culture plate. The cells were incubated with drugs alone and [(WR)5C]-GdNPs-loaded drugs at a similar condition in triplicates. To confirm the results, DMSO (1% in water) was used as a control. To entrap the drug, the physical mixing method was used. A calculated volume of the drug solution was mixed with the desired volume of an aqueous solution of [(WR)5C]-GdNPs physically to obtain a final concentration of the drug (5 μM) and the [(WR)5C]-GdNPs (50 μM). The mixture was vortexed until the solution became homogeneous and clear. The mixture was incubated for 30 min at room temperature before adding to the cells to obtain optimized performance. The incubation of cells with their treatments was carried out at 37 °C for 24–72 h. The cell viability assay was performed by adding 20 μL of CellTiter 96 aqueous solution. The cells were incubated for another hour with the MTS reagent. The formazan absorbance was measured at 490 nm by a microplate reader. The percentage of cell survival was calculated as previously reported.
Several anticancer drugs such as epirubicin, cisplatin, gemcitabine, etoposide, carboplatin and camptothecin were evaluated for their antiproliferative activities at different time periods, including 24, 48 and 72 h. […] The improved antiproliferative activity of cisplatin and carboplatin could be due to the chelating of the thiol group of cysteine with these anticancer agents or binding of metals to peptides as GdNPs. […]

Row | Structure (SMILES) | enhancement of antiproliferative potency in the presence of [(WR)5C]-GdNPs
1 | COc1cc([C@@H]2c3cc4c(cc3[C@@H](O[C@@H]3O[C@@H]5CO[C@@H](C)O[C@H]5[C@H](O)[C@H]3O)[C@H]3COC(=O)[C@H]23)OCO4)cc(OC)c1O [etoposide] | 2%
2 | CC[C@@]1(O)C(=O)OCc2c1cc1n(c2=O)Cc2cc3ccccc3nc2-1 [camptothecin] | 8%
3 | COc1cccc2c1C(=O)c1c(O)c3c(c(O)c1C2=O)C[C@@](O)(C(=O)CO)C[C@@H]3O[C@H]1C[C@H](N)[C@@H](O)[C@H](C)O1 [epirubicin] | 6%
